Measured values: PubChem BioAssay AID2060504 (Molecular Pharmacology Branch, DTP, NCI, 2025)

System: 636577-100-R-J1-PDC complex spheroid viability
Test: Anticancer human tumor 636577-100-R-J1-PDC patient-derived endometrial adenocarcinoma cell line growth inhibition [GQUAD]
Conditions: for IC50: curve of first compound; for viability, T/C: stronger effect = lower value
Summary of the method: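 Tumor cells were grown as complex spheroids with HUVEC endothelial cells and mesenchymal stem cells as stroma. G-quadruplex stabilizers were combined with targeted agents over half-log dilutions from near the clinical Cmax, or from 10 microM.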

[1] = second compound 0.0316 µM, first compound 0.0316 µM
[2] = second compound 0.0316 µM, first compound 0.1 µM
[3] = second compound 0.0316 µM, first compound 0.316 µM
[4] = second compound 0.0316 µM, first compound 1 µM
[5] = second compound 0.0316 µM, first compound 3.16 µM
[6] = second compound 0.0316 µM, first compound 10 µM
[7] = second compound 0.1 µM, first compound 0.0316 µM
[8] = second compound 0.1 µM, first compound 0.1 µM
[9] = second compound 0.1 µM, first compound 0.316 µM
[10] = second compound 0.1 µM, first compound 1 µM
[11] = second compound 0.1 µM, first compound 3.16 µM
[12] = second compound 0.1 µM, first compound 10 µM
[13] = second compound 0.316 µM, first compound 0.0316 µM
[14] = second compound 0.316 µM, first compound 0.1 µM
[15] = second compound 0.316 µM, first compound 0.316 µM
[16] = second compound 0.316 µM, first compound 1 µM
[17] = second compound 0.316 µM, first compound 3.16 µM
[18] = second compound 0.316 µM, first compound 10 µM
[19] = second compound 1 µM, first compound 0.0316 µM
[20] = second compound 1 µM, first compound 0.1 µM
[21] = second compound 1 µM, first compound 0.316 µM
[22] = second compound 1 µM, first compound 1 µM
[23] = second compound 1 µM, first compound 3.16 µM
[24] = second compound 1 µM, first compound 10 µM
[25] = second compound 3.16 µM, first compound 0.0316 µM
[26] = second compound 3.16 µM, first compound 0.1 µM
[27] = second compound 3.16 µM, first compound 0.316 µM
[28] = second compound 3.16 µM, first compound 1 µM
[29] = second compound 3.16 µM, first compound 3.16 µM
[30] = second compound 3.16 µM, first compound 10 µM
[31] = second compound 10 µM, first compound 0.0316 µM
[32] = second compound 10 µM, first compound 0.1 µM
[33] = second compound 10 µM, first compound 0.316 µM
[34] = second compound 10 µM, first compound 1 µM
[35] = second compound 10 µM, first compound 3.16 µM
[36] = second compound 10 µM, first compound 10 µM
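Further: viability read after seven days of drug exposure.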
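Wherever viability, T/C is given: luminescence signal used as a proxy for viable cells; 100% = DMSO vehicle control wells.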

COc1ncnc(C2CC2)c1-c1ncc2cnn(Cc3ccc(-c4nc(C(F)(F)F)cn4C(C)C)cc3)c2n1 + Cc1cnc(CNC(=O)c2c(=O)c3ccc(N4CCCN(C)CC4)nc3n3c2sc2ccccc23)cn1
IC50 (second compound 0.0316 µM): < 31.6 nM | IC50 (second compound 0.1 µM): < 31.6 nM | IC50 (second compound 0.316 µM): < 31.6 nM | IC50 (second compound 1 µM): < 31.6 nM | IC50 (second compound 3.16 µM): < 31.6 nM | IC50 (second compound 10 µM): < 31.6 nM | viability, T/C [1]: 37.8% | viability, T/C [2]: 36% | viability, T/C [3]: 42.7% | viability, T/C [4]: 32.1% | viability, T/C [5]: 37.7% | viability, T/C [6]: 31.4% | viability, T/C [7]: 29.7% | viability, T/C [8]: 26.2% | viability, T/C [9]: 29.4% | viability, T/C [10]: 25.2% | viability, T/C [11]: 28% | viability, T/C [12]: 27.4% | viability, T/C [13]: 24.2% | viability, T/C [14]: 24.7% | viability, T/C [15]: 25.8% | viability, T/C [16]: 21.6% | viability, T/C [17]: 25.2% | viability, T/C [18]: 24.5% | viability, T/C [19]: 19.5% | viability, T/C [20]: 18.5% | viability, T/C [21]: 22% | viability, T/C [22]: 20.4% | viability, T/C [23]: 25.4% | viability, T/C [24]: 22.6% | viability, T/C [25]: 16.3% | viability, T/C [26]: 21.4% | viability, T/C [27]: 22.7% | viability, T/C [28]: 17.4% | viability, T/C [29]: 25.9% | viability, T/C [30]: 19.2% | viability, T/C [31]: 20.8% | viability, T/C [32]: 20% | viability, T/C [33]: 23.5% | viability, T/C [34]: 18.3% | viability, T/C [35]: 23.7% | viability, T/C [36]: 22%

CC(C)n1c(=O)n(C)c2cnc3cc(F)c(-c4ccc(OCCCN5CCCCC5)nc4)cc3c21 + Cc1[nH]c2ccc(F)cc2c1-c1nc2c3cccnc3c3ncccc3c2[nH]1
IC50 (second compound 0.0316 µM): > 10000 nM | IC50 (second compound 0.1 µM): 10000 nM | IC50 (second compound 0.316 µM): 7080 nM | IC50 (second compound 1 µM): 31.6 nM | IC50 (second compound 3.16 µM): 3590 nM | IC50 (second compound 10 µM): 6960 nM | viability, T/C [1]: 73.1% | viability, T/C [2]: 74.1% | viability, T/C [3]: 88.2% | viability, T/C [4]: 30% | viability, T/C [5]: 99.5% | viability, T/C [6]: 52.4% | viability, T/C [7]: 74.4% | viability, T/C [8]: 91% | viability, T/C [9]: 70.8% | viability, T/C [10]: 37.9% | viability, T/C [11]: 69.7% | viability, T/C [12]: 48.6% | viability, T/C [13]: 80.9% | viability, T/C [14]: 96.9% | viability, T/C [15]: 60.6% | viability, T/C [16]: 58.2% | viability, T/C [17]: 87.7% | viability, T/C [18]: 38.5% | viability, T/C [19]: 57.2% | viability, T/C [20]: 43.3% | viability, T/C [21]: 60.9% | viability, T/C [22]: 54.3% | viability, T/C [23]: 98.5% | viability, T/C [24]: 46.8% | viability, T/C [25]: 57.1% | viability, T/C [26]: 54.3% | viability, T/C [27]: 59.3% | viability, T/C [28]: 70.8% | viability, T/C [29]: 47% | viability, T/C [30]: 29.8% | viability, T/C [31]: 71.9% | viability, T/C [32]: 50.6% | viability, T/C [33]: 85.5% | viability, T/C [34]: 89.3% | viability, T/C [35]: 70% | viability, T/C [36]: 40%

COc1ccc([C@@H](O)c2cc(-c3ncnc4cc(N5CCOCC5)ccc34)c(F)cc2Cl)nn1 + Cc1cnc(CNC(=O)c2c(=O)c3ccc(N4CCCN(C)CC4)nc3n3c2sc2ccccc23)cn1
IC50 (second compound 0.0316 µM): < 31.6 nM | IC50 (second compound 0.1 µM): < 31.6 nM | IC50 (second compound 0.316 µM): < 31.6 nM | IC50 (second compound 1 µM): < 31.6 nM | IC50 (second compound 3.16 µM): < 31.6 nM | IC50 (second compound 10 µM): < 31.6 nM | viability, T/C [1]: 47.1% | viability, T/C [2]: 42.8% | viability, T/C [3]: 20% | viability, T/C [4]: 10.8% | viability, T/C [5]: 9.47% | viability, T/C [6]: 9.92% | viability, T/C [7]: 30.6% | viability, T/C [8]: 22% | viability, T/C [9]: 15.2% | viability, T/C [10]: 12.2% | viability, T/C [11]: 13.5% | viability, T/C [12]: 11.6% | viability, T/C [13]: 22.8% | viability, T/C [14]: 21.2% | viability, T/C [15]: 13% | viability, T/C [16]: 13.2% | viability, T/C [17]: 13.6% | viability, T/C [18]: 12.8% | viability, T/C [19]: 18.2% | viability, T/C [20]: 18.3% | viability, T/C [21]: 13.8% | viability, T/C [22]: 15.4% | viability, T/C [23]: 14.1% | viability, T/C [24]: 10.8% | viability, T/C [25]: 20.3% | viability, T/C [26]: 17.9% | viability, T/C [27]: 18% | viability, T/C [28]: 16.1% | viability, T/C [29]: 16.6% | viability, T/C [30]: 13.6% | viability, T/C [31]: 19.5% | viability, T/C [32]: 21.2% | viability, T/C [33]: 19.6% | viability, T/C [34]: 18.5% | viability, T/C [35]: 16.5% | viability, T/C [36]: 14.5%

CC1COCCN1c1cc(-c2ccnn2C)c2ccnc(-c3ccn[nH]3)c2n1 (stereo not drawn) + Cc1[nH]c2ccc(F)cc2c1-c1nc2c3cccnc3c3ncccc3c2[nH]1
IC50 (second compound 0.0316 µM): 96.7 nM | IC50 (second compound 0.1 µM): 84.9 nM | IC50 (second compound 0.316 µM): 105 nM | IC50 (second compound 1 µM): < 31.6 nM | IC50 (second compound 3.16 µM): < 31.6 nM | IC50 (second compound 10 µM): < 31.6 nM | viability, T/C [1]: 89.7% | viability, T/C [2]: 48.1% | viability, T/C [3]: 26.9% | viability, T/C [4]: 10.8% | viability, T/C [5]: 7.12% | viability, T/C [6]: 4.03% | viability, T/C [7]: 59.4% | viability, T/C [8]: 49.1% | viability, T/C [9]: 23.9% | viability, T/C [10]: 11.4% | viability, T/C [11]: 8.62% | viability, T/C [12]: 4.31% | viability, T/C [13]: 59.4% | viability, T/C [14]: 52.9% | viability, T/C [15]: 25.8% | viability, T/C [16]: 14.5% | viability, T/C [17]: 8.77% | viability, T/C [18]: 4.31% | viability, T/C [19]: 39% | viability, T/C [20]: 32.5% | viability, T/C [21]: 23% | viability, T/C [22]: 15% | viability, T/C [23]: 8.69% | viability, T/C [24]: 3.56% | viability, T/C [25]: 16.9% | viability, T/C [26]: 18.7% | viability, T/C [27]: 15.5% | viability, T/C [28]: 9.23% | viability, T/C [29]: 6.94% | viability, T/C [30]: 3.78% | viability, T/C [31]: 41.6% | viability, T/C [32]: 24.7% | viability, T/C [33]: 20.6% | viability, T/C [34]: 13.2% | viability, T/C [35]: 8.7% | viability, T/C [36]: 4.88%
